Test results published in patent US5463029A, “Purification of fusion proteins comprising GM-CSF and IL-3” (Immunex Corporation, priority 1992, dated 1995).

Key:
TF-1 cells = test: cell proliferation assay using TF-1 cells (tritiated thymidine incorporation); format: cell-based, human; conditions: 72 hours at 37° C., tritiated thymidine for the final four hours
Experimental: The potency of the purified recombinant fusion protein was evaluated in a cell proliferation assay using TF-1 cells. TF-1 cells are a continuous cell line derived from human erythroid leukemia cells, and are dependent on IL-3 or GM-CSF for growth. TF-1 cells were maintained in medium containing GM-CSF. Prior to being used in an assay, the cells were washed free of GM-CSF, and resuspended to a concentration of 5×10^4 cells/ml in assay medium (Iscove's Modification of Dulbecco's Medium). The suspended cells were added to the wells of a 96-well microtiter plate containing dilutions of the recombinant fusion protein preparation, positive controls, or negative controls. The cells were incubated at 37° C. for 72 hours; proliferation was measured by adding tritiated thymidine for the final four hours of the incubation. The cells were harvested onto glass fiber filters, and the amount of radioactivity incorporated was determined by scintillation counting.

GM-CSF receptor = target: T1, GM-CSF receptor (Homo sapiens, UniProt P15509+P32927); test: binding affinity for GM-CSF receptor (as described by Park et al.)
T1 construct: endogenous in cells
T1 sequence (P15509 23-400): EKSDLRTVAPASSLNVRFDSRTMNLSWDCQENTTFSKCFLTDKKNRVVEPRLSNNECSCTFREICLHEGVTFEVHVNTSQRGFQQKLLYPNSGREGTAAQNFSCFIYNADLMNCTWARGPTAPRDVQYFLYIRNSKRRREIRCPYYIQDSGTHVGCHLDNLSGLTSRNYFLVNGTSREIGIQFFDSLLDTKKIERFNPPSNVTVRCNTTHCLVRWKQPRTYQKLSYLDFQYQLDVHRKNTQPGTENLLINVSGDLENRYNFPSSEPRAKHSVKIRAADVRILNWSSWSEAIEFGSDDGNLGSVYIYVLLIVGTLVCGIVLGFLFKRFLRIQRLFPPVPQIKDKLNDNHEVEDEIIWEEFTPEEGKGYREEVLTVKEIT
T1 sequence (P32927 17-897): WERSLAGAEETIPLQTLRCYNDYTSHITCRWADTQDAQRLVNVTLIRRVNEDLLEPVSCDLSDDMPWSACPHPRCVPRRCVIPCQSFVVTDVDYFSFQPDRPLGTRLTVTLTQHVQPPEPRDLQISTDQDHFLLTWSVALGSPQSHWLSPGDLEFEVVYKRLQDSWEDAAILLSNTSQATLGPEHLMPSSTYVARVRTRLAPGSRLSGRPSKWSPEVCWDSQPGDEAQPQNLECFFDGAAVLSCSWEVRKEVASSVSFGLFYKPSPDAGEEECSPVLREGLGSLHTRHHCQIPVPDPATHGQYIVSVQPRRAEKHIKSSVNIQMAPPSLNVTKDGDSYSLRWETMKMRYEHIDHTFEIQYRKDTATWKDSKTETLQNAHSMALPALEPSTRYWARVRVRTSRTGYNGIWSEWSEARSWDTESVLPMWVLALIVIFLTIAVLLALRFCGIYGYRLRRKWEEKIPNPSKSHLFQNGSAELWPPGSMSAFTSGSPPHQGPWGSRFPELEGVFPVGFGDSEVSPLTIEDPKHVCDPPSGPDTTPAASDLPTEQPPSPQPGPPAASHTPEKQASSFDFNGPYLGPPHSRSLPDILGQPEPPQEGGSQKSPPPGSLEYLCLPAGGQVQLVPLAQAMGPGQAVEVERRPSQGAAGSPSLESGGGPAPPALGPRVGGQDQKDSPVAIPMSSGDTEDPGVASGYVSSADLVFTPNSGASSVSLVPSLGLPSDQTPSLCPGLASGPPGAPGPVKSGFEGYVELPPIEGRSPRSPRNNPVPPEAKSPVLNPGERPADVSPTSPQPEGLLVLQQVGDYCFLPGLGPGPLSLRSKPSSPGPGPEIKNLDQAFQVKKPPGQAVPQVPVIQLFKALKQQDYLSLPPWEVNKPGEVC
Experimental: (§1) The binding affinity of the recombinant fusion protein for receptors for both GM-CSF and IL-3 were determined substantially as described by Park et al., J. Biol. Chem. 264:5420; 1989, and Park et al., Blood 74:56; 1989.

IL-3 receptor = target: T2, IL-3 receptor (Homo sapiens, UniProt P26951+P32927); test: binding affinity for IL-3 receptor (as described by Park et al.)
T2 construct: endogenous in cells
T2 sequence (P26951 19-378): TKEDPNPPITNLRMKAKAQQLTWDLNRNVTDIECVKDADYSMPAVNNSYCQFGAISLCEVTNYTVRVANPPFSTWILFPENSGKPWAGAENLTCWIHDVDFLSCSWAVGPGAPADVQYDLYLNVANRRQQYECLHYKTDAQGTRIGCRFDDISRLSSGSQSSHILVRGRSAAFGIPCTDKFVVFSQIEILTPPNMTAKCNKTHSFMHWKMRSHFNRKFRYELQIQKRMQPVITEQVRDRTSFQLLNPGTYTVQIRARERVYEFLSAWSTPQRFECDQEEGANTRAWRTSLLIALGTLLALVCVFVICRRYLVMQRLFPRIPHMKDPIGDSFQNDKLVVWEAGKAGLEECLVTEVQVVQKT
T2 sequence (P32927 17-897): T1 sequence (P32927 17-897)
Experimental: as §1

binding affinity for GM-CSF receptor (GM-CSF receptor): 1e+10 M⁻¹
binding affinity for IL-3 receptor (IL-3 receptor): 2.2e+10 M⁻¹
Substance: huGM-CSF[Leu^23 Asp^27 Glu^39 ]/Gly4 SerGly5 Ser/hulL-3[Pro^8 Asp^15 Asp^70 ] [recombinant fusion protein]
potency (a unit is the amount of recombinant fusion protein that induces half-maximal proliferation in the TF-1 bioassay) (TF-1 cells): 2.1×10^8 U/mg
